Laboratory results reported in ChEMBL document CHEMBL1151418, “Breviane spiroditerpenoids from an extreme-tolerant Penicillium sp. isolated from a deep sea sediment sample” (J Nat Prod, 2009).
Counter-ions that a name gives are not always drawn.

What was measured:
HIV-1 M:B_Lai = test: Antiviral activity against HIV-1 M:B_Lai replication in human C8166 cells assessed as inhibition of p24 antigen expression level after 4 days by ELISA; type: functional, organism-based; details: Human immunodeficiency virus 1, LAI, C8166, 96 h
HeLa = test: Growth inhibition of human HeLa cells at 10 ug/mL after 4 hrs by MTT assay; type: functional; details: read-out: GI
[1] = Cytotoxicity against human C8166 cells after 4 days by MTT assay; type: cell-based

Work on `CC1=CC(=O)C=C[C@]2(C)[C@H]3[C@H](O)C=C(C)[C@@]4(Cc5c(c(C)c(C)oc5=O)O4)[C@]3(C)CC[C@@H]12` [BREVIONE G] yielded an EC50 (HIV-1 M:B_Lai) greater than 50 µM and an inhibition of growth at 10 µg/mL (HeLa) of 44.9%.

In the case of `CC(C)(C)NC(=O)[C@@H]1CN(Cc2cccnc2)CCN1C[C@@H](O)C[C@@H](Cc1ccccc1)C(=O)N[C@H]1c2ccccc2C[C@H]1O` [INDINAVIR SULFATE], the EC50 (HIV-1 M:B_Lai) is reported as 0.00871 µM.

For `CC1=CC(=O)C=C[C@]2(C)[C@H]3[C@@H](O)C=C(C)[C@@]4(Cc5c(c(C)c(C)oc5=O)O4)[C@]3(C)CC[C@@H]12` [BREVIONE F], the EC50 (HIV-1 M:B_Lai) was 14.7 µM, the CC50 at 96 h [1] was greater than 100 µM and the inhibition of growth at 10 µg/mL (HeLa) was 25.2%.

With `CC1=CC(=O)C[C@@H]2O[C@@H]3C=C(C)[C@@]45Oc6c(C)c(C)oc(=O)c6[C@@H]4O[C@H](O)[C@]54CC[C@@H]1[C@@]2(C)[C@@H]34` [BREVIONE H] the EC50 (HIV-1 M:B_Lai) was greater than 50 µM and the inhibition of growth at 10 µg/mL (HeLa) was 25.3%.
